Test [1] has as its system CD-1 male mice. The note with it: cited from earlier work; for amnestic effect on retention of FAAT (earlier publications): post-training ICV, references 1 and 12.
The subject of test [2] is CD-1 male mice. The experiment in a line: Footshock active avoidance training (FAAT) in T-maze, amnesia test in well-trained mice, post-training ICV injection. Format: in vivo. The note with it: for amnestic effect on retention of FAAT: 6.14 nmol of peptide per mouse (except dose-response curves), well-trained mice, retention tested one week later; for amnestic efficacy/potency compared with another peptide: dose-response curves / FIG. 19. Here is the method:
(§1) Test Animals. After 1 week in the laboratory, CD-1 male mice obtained from Charles River Breeding Laboratories were caged individually 24-28 hours prior to training and remained singly housed until retention was tested one week later. Animal rooms were on a 12 hour light/dark cycle with lights going on at the hour of 0600. Median body weight was 35 g, with a range of 33-38 g. Mice were assigned randomly to groups of 15 in the experiments reported in FIGS. 1-18 and groups of 10 for the dose-response curves (FIGS. 19 and 20) and were trained and tested between the hours of 0700 and 1500.
Peptides Tested. With the exception of Val Phe and Phe Val from Sigma, all peptides used in these studies were synthesized and analyzed to establish purity by standard methods at the Beckman Research Institute. Peptides were dissolved in: (1) saline; (2) 8% vol/vol dimethyl sulfoxide; (3) glacial acetic acid neutralized with […]; or (4) NaOH neutralized with HCl.
With exception of dose-response curves, the experiments reported below tested whether or not there was an amnestic effect at 6.14 nmol of peptide per mouse.
(§2) Apparatus, Training and Testing Procedures. The T-maze used for footshock active avoidance training (FAAT) consisted of a black plastic alley (46 cm long) with a start box at one end and two goal boxes (17.5 cm long) at the other. The start box was separated from the alley by a plastic guillotine door that prevented movement down the alley until training began. The alley was 12.5 cm deep and 9.8 cm wide. An electrifiable stainless steel rod floor ran throughout the maze.
(§3) Mice were not permitted to explore the maze before training. A block of training trials began when a mouse was placed in the start box. The guillotine door was raised and a muffled doorbell-type buzzer sounded simultaneously; footshock was 5 seconds later through a scrambled grid floor shocker (Colbourn Instruments, Model E13-08). The goal box first entered during the first set of trials was designated as "incorrect", and footshock was continued until the mouse entered the other goal box, which in all subsequent trials was designated "correct" for the particular mouse. At the end of each group of trials, the mouse was removed to its home cage.
As training proceeded, a mouse made one of two types of responses. A response latency longer than 5 seconds was classed as an escape from the footshock. A response latency less than or equal to 5 seconds was considered an avoidance, since the mouse avoided receiving a footshock. Two exclusion criteria were applied to reduce learning variability among mice, as follows. On the first training trials, mice with escape latencies greater than 20 seconds were discarded. Mice not having at least one errorless escape latency between 1.5 and 3.5 seconds on training trials 3 or 4 were excluded. […] Mice received five such training trials. One week after training and post-trial administration of vehicle alone or vehicle containing test substance, T-maze training was resumed until each mouse made five avoidance responses in six consecutive training trials (trials to criterion). The recall score was taken to be the percentage of tested mice remembering original training.
In these instances, training was performed under conditions that tend to maximize learning (sound intensity, 65 decibels; footshock current, 0.35 mA; intertrial interval, 45 seconds).

Test [3] deals with CD-1 male mice. The experiment in a line: FAAT in T-maze, memory-enhancement test in weakly trained mice (poor retention in vehicle controls), post-training ICV injection. Format: in vivo. The note with it: for Lowest Concentration For Significant Memory Enhancement: Table 1. As for the experimental part:
as §1
Peptides Tested. With the exception of Val Phe and Phe Val from Sigma, all peptides used in these studies were synthesized and analyzed to establish purity by standard methods at the Beckman Research Institute. Peptides were dissolved in: (1) saline; (2) 8% vol/vol dimethyl sulfoxide; (3) glacial acetic acid neutralized with […]; or (4) NaOH neutralized with HCl. […] Analysis of variance showing insignificant differences among the latter, the value for the most frequently employed (No. 2 above) was used for comparison with groups receiving test peptides.
as §2, §3
As training proceeded, a mouse made one of two types of responses. A response latency longer than 5 seconds was classed as an escape from the footshock. A response latency less than or equal to 5 seconds was considered an avoidance, since the mouse avoided receiving a footshock. Two exclusion criteria were applied to reduce learning variability among mice, as follows. On the first training trials, mice with escape latencies greater than 20 seconds were discarded. Mice not having at least one errorless escape latency between 1.5 and 3.5 seconds on training trials 3 or 4 were excluded. The total exclusions were fewer than 15%. Mice received five such training trials. One week after training and post-trial administration of vehicle alone or vehicle containing test substance, T-maze training was resumed until each mouse made five avoidance responses in six consecutive training trials (trials to criterion). The recall score was taken to be the percentage of tested mice remembering original training.
Well-trained animals (recall score approximately 80%) were used to determine whether or not administered substances could cause amnesia. In these instances, training was performed under conditions that tend to maximize learning (sound intensity, 65 decibels; footshock current, 0.35 mA; intertrial interval, 45 seconds). In the cases in which it was desired to detect whether or not there was an enhancing effect on memory, training conditions were adjusted so that the initial recall score in vehicle controls was only approximately 20% (sound intensity, 55 decibels; footshock current, 0.30 mA; intertrial interval, 30 seconds). […]

For test [4] the following is noted: references 13-16; cited from earlier work.
Test [5] relates to hippocampal neurons in culture. The following applies: reference 17; cited from earlier work.

Ends that are not written are not given here. Peptide text beside a SMILES is read from it.

Consider “β-(1-18): β-A4 fragment as printed in b47; probably the β-(1-28) homologue of reference 1 (DAEFRHDSGYEVHHQKLV; Amyloid-beta protein 42; UniProt P05067 672-689, looked up, fragment)”, for which the “dose at which active (amnestic)” value with CD-1 male mice [1] (ICV, reference 1) is on record as 1.5 nmol per mouse.

Regarding “His Ser Asp Ala Val Phe Thr Asp Asn Tyr Thr Arg Leu Lys Gln Met Ala Val Lys Lys Tyr Leu Asn Ser Ile Leu Asn-NH2 (HSDAVFTDNYTRLKQMAVKKYLNSILN-NH2) [VIP]”, the “amnestic effect on retention of FAAT (earlier publications)” value in the test on CD-1 male mice [1] is given as “amnestic”.

In the case of `N[C@@H](Cc1ccccc1)C(=O)N[C@@H](Cc1ccccc1)C(=O)O` [Phe Phe] (H-Phe-Phe-OH), the “amnestic effect on retention of FAAT” value in the test with CD-1 male mice [2] (post-training ICV) is listed as “amnestically ineffective”. Moreover, the “mean trials to criterion ±SEM” value in the test on CD-1 male mice [2] (post-training ICV, 6.14 nmol per mouse, vehicle 6.80±0.21) is 7.0±0.42.

In the case of `CC(C)[C@H](N)C(=O)N[C@@H](Cc1ccccc1)C(=O)N[C@H](C(=O)O)[C@@H](C)O` [Val Phe Thr] (H-Val-Phe-Thr-OH), in the test with CD-1 male mice [2] (post-training ICV), the “amnestic effect on retention of FAAT” value is “amnestic”.

As to VFFAEDVGSNK [β-(18-28)], in the test on CD-1 male mice [1], the “amnestic effect on retention of FAAT (earlier publications)” value is recorded as “amnestic”.

Consider `NC(=O)CC[C@H](N)C(=O)N[C@@H](Cc1ccccc1)C(=O)N[C@@H](Cc1ccccc1)C(=O)NCC(=O)O` [Gln Phe Phe Gly] (H-QFFG-OH), for which the “dose at which statistically significant memory enhancement found” value in the test on CD-1 male mice [3] (weakly trained animals) is 10^-14 moles/mouse. Besides, in the test on CD-1 male mice [3] (weakly trained mice), the “memory-enhancing potency compared with other peptides” value is listed as “by far the most potent” and the “Lowest Concentration For Significant Memory Enhancement” value is reported as 6 × 10^-14 Moles/Mouse. Also, the “amnestic effect on retention of FAAT” value in the test on CD-1 male mice [2] (post-training ICV) is given as “amnestic”.

With KLVFFAE [Lys Leu Val Phe Phe Ala Glu], the “amnestic effect on retention of FAAT” value with CD-1 male mice [2] (post-training ICV) is “not amnestic”.

On to “Pro Arg Pro Gly Pro Gln Gln Phe Phe Gly Leu Met-NH2 (PRPGPQQFFGLM-NH2) [Substance Pro]”, for which, in test [4], the “memory retention (literature)” value is given as “enhance memory retention”. For the same compound, in test [5], the “effect on trophic and toxic effects of β-A4 on hippocampal neurons” value is “counteract trophic and toxic effects of B-A4 on hippocampal neurons in culture”.

As to VFFAE [Val Phe Phe Ala Glu], the “amnestic efficacy/potency compared with another peptide” value in the test with CD-1 male mice [2] (ICV) is “lesser potency of Val Phe Phe Ala Glu than that of Val Phe Phe”. In addition, in the test with CD-1 male mice [2] (post-training ICV), the “amnestic effect on retention of FAAT” value is “amnestic”.

As for `CC(C)[C@H](N)C(=O)N[C@@H](Cc1ccccc1)C(=O)N[C@@H](Cc1ccccc1)C(=O)O` [Val Phe Phe] (H-Val-Phe-Phe-OH), in the test on CD-1 male mice [3] (weakly trained animals), the “dose at which statistically significant memory enhancement found” value is reported as 1.9×10^-11 moles/mouse and the memory-enhancing effect result is listed as “memory enhancer”. For the same compound, the “Lowest Concentration For Significant Memory Enhancement” value with CD-1 male mice [3] (weakly trained mice) is on record as 1.9 × 10^-11 Moles/Mouse. Further, in the test on CD-1 male mice [2] (ICV), the “amnestic efficacy/potency compared with another peptide” value is “not significantly different from that of the β-A4 homologue [Gln^11 ]β-(1-28)”. For the same compound, the “dose at which amnesia first noted” value in the test with CD-1 male mice [2] (ICV, well-trained animals) was 3×10^-9 moles/mouse. Also, in the test on CD-1 male mice [2] (post-training ICV), the “amnestic effect on retention of FAAT” value was “amnestic”.

Values taken from patent publication US5652334A, “Method for design of substances that enhance memory and improve the quality of life” (City of Hope, priority 1993, dated 1997).
